Measured values from the NIST ThermoML archive (doi:10.1016/j.jct.2010.08.004).

Test: mn = molality of the nth substance listed, in mol/kg
Conditions: 101 kPa, Liquid, Vibrating tube method

NCC(=O)O [2-aminoacetic acid] + O
mass density [kg/m3]
Conditions	m1 = 0.05482	m1 = 0.1106	m1 = 0.1792	m1 = 0.2044	m1 = 0.2754	m1 = 0.2966
293.15 K	999.976	1001.75	1003.91	1004.69	1006.9	1007.58
298.15 K	998.789	1000.54	1002.68	1003.46	1005.64	1006.28
303.15 K	997.364	999.102	1001.22	1002	1004.17	1004.81
308.15 K	–	997.455	999.562	1000.33	1002.5	1003.13

CC(C)C[C@H](N)C(=O)O [L-leucine] + O
mass density [kg/m3]
Conditions	m1 = 0.03401	m1 = 0.03488	m1 = 0.05007	m1 = 0.08154	m1 = 0.119	m1 = 0.1427
293.15 K	999.039	999.061	999.427	1000.18	1001.08	1001.64
298.15 K	997.855	997.877	998.236	998.978	999.854	1000.41
303.15 K	996.441	996.462	996.817	997.55	998.417	998.966
308.15 K	994.81	994.83	995.182	995.908	996.767	997.31

CC(C)[C@H](N)C(=O)O [L-valine] + O
mass density [kg/m3]
Conditions	m1 = 0.04524	m1 = 0.09973	m1 = 0.152	m1 = 0.1964	m1 = 0.2542	m1 = 0.2955
293.15 K	999.424	1000.87	1002.24	1003.4	1004.9	1006.01
298.15 K	998.244	999.672	1001.03	1002.18	1003.67	1004.72
303.15 K	996.827	998.242	999.59	1000.73	1002.2	1003.25
308.15 K	995.195	996.6	997.939	999.067	1000.53	1001.56
